In patent publication US11504362B2, “Liquid dosage forms to treat cancer” (Exelixis, Inc., priority 2017, dated 2022):
Counter-ions that a name gives are not always drawn.

Key:
clinical [1] = details: in vivo
Experimental: Pharmacokinetics: Serial blood, urine, and feces were collected at specified times following dosing.
All samples collected for radioactivity analysis were analyzed for total radioactivity.
Detailed reports of the bioanalytical methodologies and results accompany the clinical study report.
The other minor metabolite in plasma, p-Fluoroaniline, was analyzed by Exelixis using a validated LC/MS/MS method.
PK variables were computed using WinNonlin Professional, version 5.2.

clinical [2] = details: in vivo; remark: listed apart in the source
Experimental: Samples for 2 subjects were used for the investigation study. Therefore, only 6 subjects' PK profiles were determined using a radio-quantitation method.

| AUC0-24 (clinical [1]; human) | AUC0-72 (clinical [1]; human) | AUC0-t (clinical [1]; human) | AUC0-24 (clinical [2]; human) | AUC0-72 (clinical [2]; human) | AUC0-t (clinical [2]; human) | Tmax (clinical [2]; human) | AUC0-inf (clinical [1]; human) | t1/2 (clinical [1]; human) | kel (clinical [1]) | AUC0-inf (clinical [2]; human) | Cmax (clinical [2]; human) | t1/2 (clinical [2]; human) | ke1 (clinical [2]) | Plasma concentrations (clinical [1]; male, human) | Compound |
| --- | --- | --- | --- | --- | --- | --- | --- | --- | --- | --- | --- | --- | --- | --- | --- |
| 951 ± 377 (40) h · ng/mL | 7530 ± 3200 (42) h · ng/mL | 99500 ± 34500 (35) h · ng/mL | 2520 ± 1370 h · ngEq/mL | 17400 ± 7000 h · ngEq/mL | 89000 ± 32000 h · ngEq/mL | ~71.99 h | – | – | – | – | – | – | – | – | COc1cc2nccc(Oc3ccc(NC(=O)C4(C(=O)O)CC4)cc3)c2cc1OS(=O)(=O)O [6-Demethyl Half-Dimer Sulfate] |
| 1080 ± 341 (32) h · ng/mL | 3120 ± 976 (31) h · ng/mL | 6540 ± 1680 (26) h · ng/mL | 3610 ± 1350 h · ngEq/mL | 8680 ± 3980 h · ngEq/mL | 11100 ± 5890 h · ngEq/mL | 1.49 h | 6770 ± 1700 (25) h · ng/mL | 91.8 h | 0.00807 h⁻¹ | 16400 ± 1770 h · ngEq/mL | 210 ± 73 ngEq/mL | 57.9 ± 28.4 h | 0.0136 ± 0.00672 h⁻¹ | – | COc1cc2nccc(Oc3ccc(NC(=O)C4(C(=O)O)CC4)cc3)c2cc1OC [XL184-Half-Dimer] |
| 2030 ± 682 (34) h · ng/mL | 5610 ± 1940 (35) h · ng/mL | 10100 ± 3210 (32) h · ng/mL | 4300 ± 1460 h · ngEq/mL | 10600 ± 3490 h · ngEq/mL | 13300 ± 8360 h · ngEq/mL | – | 10300 ± 3170 (31) h · ng/mL | 89.2 h | 0.00846 h⁻¹ | 20800 ± 7640 h · ngEq/mL | – | 73.1 h | 0.00976 ± 0.00212 h⁻¹ | – | COc1cc2c(Oc3ccc(NC(=O)C4(C(=O)Nc5ccc(F)cc5)CC4)cc3)cc[n+]([O-])c2cc1OC [XL184-N-Oxide] |
| – | – | – | – | – | – | – | – | – | – | – | – | – | – | < 2.0 ng/mL | Nc1ccc(F)cc1 [p-Fluoroaniline, Para-fluoroaniline] |
